# Measurements as given in patent US11555041B2, “Bridged bicyclic inhibitors of menin-MLL and methods of use” (Kura Oncology, Inc., priority 2016, dated 2023).
# Tested on: MV4;11 cells
# Test: MTT cell proliferation assay
# Assay type: cell-based
# Settings: Homo sapiens
# Description: The ability of a compound of the present disclosure to inhibit the growth of cells was tested in MLL leukemia cell lines (e.g., MV4;11) using the MTT cell proliferation assay (ATCC® 30-1010K). […] Cells were plated at about 1×10^5 cells per well in a 96-well plate. A compound of the present disclosure was added at a concentration up to about 2 μM with seven, 2-fold serial dilutions for each compound. Cells were incubated at 37° C. for 72 hours, then cells in the control wells were counted. Media was changed to restore viable cell numbers to the original concentration, and compounds were re-supplied. Proliferation was measured 96 hours later using MTT reagents, as per kit instructions. […] As used in the Examples and Figures herein, Compound A refers to Compound 3 in Table 1.
row,SMILES,GI50 [nM]
1,CCC(=O)NC12CC(Cn3c(C#N)cc4c(C)c(CN5CCC(Nc6ncnc7sc(CC(F)(F)F)cc67)CC5)ccc43)(C1)C2 [Compound 3],40

# Molecular target: T1, menin-MLL interaction (Menin MLL 4-43) (Homo sapiens, UniProt O00255)
# T1 sequence (O00255 1-610): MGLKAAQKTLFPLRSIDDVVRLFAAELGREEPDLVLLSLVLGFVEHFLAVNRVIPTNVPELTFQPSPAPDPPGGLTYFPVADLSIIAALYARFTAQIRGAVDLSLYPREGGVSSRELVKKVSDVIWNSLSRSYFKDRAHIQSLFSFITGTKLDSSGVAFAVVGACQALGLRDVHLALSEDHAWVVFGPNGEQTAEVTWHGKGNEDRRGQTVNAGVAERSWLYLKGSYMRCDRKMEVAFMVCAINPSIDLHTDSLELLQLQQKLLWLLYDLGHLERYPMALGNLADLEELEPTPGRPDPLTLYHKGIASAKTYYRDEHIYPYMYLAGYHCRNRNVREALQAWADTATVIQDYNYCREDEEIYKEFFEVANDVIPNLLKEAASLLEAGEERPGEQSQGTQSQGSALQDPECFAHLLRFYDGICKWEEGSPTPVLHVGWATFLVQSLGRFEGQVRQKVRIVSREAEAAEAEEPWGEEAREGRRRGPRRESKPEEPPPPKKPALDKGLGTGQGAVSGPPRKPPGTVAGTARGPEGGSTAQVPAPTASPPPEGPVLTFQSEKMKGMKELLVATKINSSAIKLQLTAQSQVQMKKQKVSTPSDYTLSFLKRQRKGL
# Test: Fluorescence polarization (FP) competition assay
# Assay type: binding
# Settings: fluorescence polarization assay; read-out: Menin MLL 4-43 IC50
row,SMILES,IC50 [nM]
1,CNc1nc(NC2CCN(Cc3ccc4c(cc(C#N)n4CC45CC(NC(C)=O)(C4)C5)c3C)CC2)c2cc(CC(F)(F)F)sc2n1 [Compound 82],< 50
2,Cc1c(CN2CCC(Nc3ncnc4sc(CC(F)(F)F)cc34)CC2)ccc2c1cc(C#N)n2CC12CC(NC(=O)C3(O)CC3)(C1)C2 [Compound 68],50 to 250
3,Cc1c(CN2CCC(Nc3ncnc4sc(CC(F)(F)F)cc34)CC2)ccc2c1cc(C#N)n2CC12CC(NC(=O)CNC=O)(C1)C2 [Compound 33],250 to 1000
4,CNc1nc(NC2CCN(Cc3ccc4c(cc(C#N)n4CC45CC(NC(=O)Cc6ccccc6N)(C4)C5)c3C)CC2)c2cc(CC(F)(F)F)sc2n1 [Compound 80],< 50
5,Cc1c(CN2CCC(Nc3ncnc4sc(CC(F)(F)F)cc34)CC2)ccc2c1cc(C#N)n2CC12CC(NC(=O)C(C)N)(C1)C2 (centres unmarked) [Compound 64],< 50
6,Cc1c(CN2CCC(Nc3ncnc4sc(CC(F)(F)F)cc34)CC2)ccc2c1cc(C#N)n2CC12CC(NC(=O)CN3CCCC3)(C1)C2 [Compound 57],< 50
7,CCC(=O)NC12CC(CCn3c(C#N)cc4c(C)c(CN5CCC(Nc6ncnc7sc(CC(F)(F)F)cc67)CC5)ccc43)(C1)C2 [Compound 12],> 1000
8,CNC(=O)C12CC(Cn3c(C#N)cc4c(C)c(CN5CCC(Nc6ncnc7sc(CC(F)(F)F)cc67)CC5)ccc43)(C1)C2 [Compound 18],50 to 250
9,CCC(=O)NC12CC(Cn3c(C#N)cc4c(C)c(CN5CCC(Nc6nc(C)nc7sc(CC(F)(F)F)cc67)CC5)ccc43)(C1)C2 [Compound 55],50 to 250
10,Cc1c(CN2CCC(Nc3ncnc4sc(CC(F)(F)F)cc34)CC2)ccc2c1cc(C#N)n2CC12CC(C(=O)O)(C1)C2 [Compound 20],> 1000
11,Cc1c(CN2CCC(Nc3ncnc4sc(CC(F)(F)F)cc34)CC2)ccc2c1cc(C#N)n2CC12CC(NC(=O)C(N)c3ccccc3)(C1)C2 (centres unmarked) [Compound 65],< 50
12,Cc1c(CN2CCC(Nc3ncnc4sc(CC(F)(F)F)cc34)CC2)ccc2c1cc(C#N)n2CC12CC(NC(=O)C3CC3)(C1)C2 [Compound 9],50 to 250
13,Cc1c(CN2CCC(Nc3ncnc4sc(CC(F)(F)F)cc34)CC2)ccc2c1cc(C#N)n2CC12CC(NC(=O)CO)(C1)C2 [Compound 16],50 to 250
14,CNC(CO)C(=O)NC12CC(Cn3c(C#N)cc4c(C)c(CN5CCC(Nc6ncnc7sc(CC(F)(F)F)cc67)CC5)ccc43)(C1)C2 (centres unmarked) [Compound 76],< 50
15,CCC(=O)NC12CC(Cn3c(C#N)cc4c(C)c(CN5CCC(Nc6ncnc7sc(CC(F)(F)F)cc67)CC5)ccc43)(C1)C2 [Compound 3],50 to 250
16,COCC(=O)NC12CC(Cn3c(C#N)cc4c(C)c(CN5CCC(Nc6ncnc7sc(CC(F)(F)F)cc67)CC5)ccc43)(C1)C2 [Compound 43],50 to 250
17,Cc1c(CN2CCC(Nc3ncnc4sc(CC(F)(F)F)cc34)CC2)ccc2c1cc(C#N)n2CC12CC(NC(=O)C(C)(C)O)(C1)C2 [Compound 63],50 to 250
18,CNC(=O)NC12CC(Cn3c(C#N)cc4c(C)c(CN5CCC(Nc6ncnc7sc(CC(F)(F)F)cc67)CC5)ccc43)(C1)C2 [Compound 7],< 50
19,C=CC(=O)N[C@H]1C[C@H](Cn2c(C#N)cc3c(C)c(CN4CCC(Nc5ncnc6sc(CC(F)(F)F)cc56)CC4)ccc32)C1 [Compound 30],50 to 250
20,Cc1c(CN2CCC(Nc3ncnc4sc(CC(F)(F)F)cc34)CC2)ccc2c1cc(C#N)n2CC12CC(NC(=O)C(N)C(F)(F)F)(C1)C2 (centres unmarked) [Compound 69],250 to 1000
21,Cc1c(CN2CCC(Nc3ncnc4sc(CC(F)(F)F)cc34)CC2)ccc2c1cc(C#N)n2CC12CC(NC(=O)c3cccc(=O)[nH]3)(C1)C2 [Compound 35],< 50
22,Cc1c(CN2CCC(Nc3ncnc4sc(CC(F)(F)F)cc34)CC2)ccc2c1cc(C#N)n2CC12CC(NC(=O)CNC3CC3)(C1)C2 [Compound 42],50 to 250
23,CCCCC(NC)C(=O)NC12CC(Cn3c(C#N)cc4c(C)c(CN5CCC(Nc6ncnc7sc(CC(F)(F)F)cc67)CC5)ccc43)(C1)C2 (centres unmarked) [Compound 73],50 to 250
24,Cc1c(CN2CCC(Nc3ncnc4sc(CC(F)(F)F)cc34)CC2)ccc2c1cc(C#N)n2CC12CC(NC(=O)Cc3ccccc3)(C1)C2 [Compound 77],250 to 1000

# Same assay, conditions: measured in accordance with Example 8; read-out: IC50 value (ability of the compound to disrupt the menin-MLL interaction)
row,SMILES,IC50 [nM]
1,CNc1nc(NC2CCN(Cc3ccc4c(cc(C#N)n4CC45CC(NC(C)=O)(C4)C5)c3C)CC2)c2cc(CC(F)(F)F)sc2n1 [Compound 82],≤ 50
2,CCC(=O)NC12CC(Cn3c(C#N)cc4c(C)c(CN5CCC(Nc6ncnc7sc(CC(F)(F)F)cc67)CC5)ccc43)(C1)C2 [Compound 3],≤ 50

# Tested on: MV4;11 (human leukemia) tumor
# Test: Efficacy study in mouse xenograft tumor model
# Assay type: in vivo
# Settings: female nude mice, subcutaneous MV4;11, oral gavage 150 mg/kg bid
# Description: Immunocompromised 8-10 week-old female nude (nu/nu) mice were used for in vivo efficacy studies in accordance with IACUC guidelines. Human MV4;11 leukemia cells available from ATCC were implanted subcutaneously into female nude mice (5×10^6 cells/mouse). When the tumor reached a size of approximately 150 to 250 mm^3, the tumor-bearing mice were randomly assigned to a vehicle control or a compound treatment group (8 mice per group). Mice in the treatment group were administered a compound of the present disclosure by oral gavage (150 mg/kg, bid). Subcutaneous tumor volume and mouse body weight were measured twice weekly. Tumor volumes were calculated by measuring two perpendicular diameters with calipers (V=(length×width^2)/2). […] As used in the Examples and Figures herein, Compound B refers to Compound 82 in Table 1.
row,SMILES,MV4;11 tumor growth (tumor volume) relative to vehicle control
1,CNc1nc(NC2CCN(Cc3ccc4c(cc(C#N)n4CC45CC(NC(C)=O)(C4)C5)c3C)CC2)c2cc(CC(F)(F)F)sc2n1 [Compound 82],inhibited tumor growth and induced tumor regression
2,CCC(=O)NC12CC(Cn3c(C#N)cc4c(C)c(CN5CCC(Nc6ncnc7sc(CC(F)(F)F)cc67)CC5)ccc43)(C1)C2 [Compound 3],inhibited tumor growth and induced tumor regression
